{
  "source": "paper PMC1079851",
  "about": "“Cloning of the koi herpesvirus (KHV) gene encoding thymidine kinase and its use for a highly sensitive PCR based diagnosis” (BMC Microbiology, 2005)",
  "biological_target": "T1, KHV TK (recombinant thymidine kinase) (Cyprinid herpesvirus 3, UniProt Q8B3A9)",
  "T1 construct": "gene CyHV3_ORF55; E. coli ER2566, chitin column",
  "experiment": "DE-81 filter paper radiometric kinase assay",
  "assay_type": "biochemical",
  "conditions": "ATP 10.0 mM, MgCl2 2.0 mM, Tris-Cl 140 mM, 37 °C; substrate 5-30 mM; labelled compound (methyl-3H)",
  "data": [
    {"smiles": "Cc1cn([C@H]2C[C@H](O)[C@@H](CO)O2)c(=O)[nH]c1=O", "note": "[methyl-3H Thymidine (dThd)]", "values": [
      {"measurement": "DE-81 filter paper radiometric kinase assay", "value": "the enzyme is specifically active using methyl-^3H Thymidine (dThd)"}
    ]}
  ]
}
